Measurements from ChEMBL document CHEMBL2331377, “Spirocyclic compounds, potent CCR1 antagonists” (Bioorg Med Chem Lett, 2013).

Legend:
in vitro [1] = conditions: human
in vitro [2] = conditions: human, hepatocytes
[3] = biological target: T1, C-C chemokine receptor type 1 (Homo sapiens, UniProt P32246); experiment: Displacement of [125I]MIP-1alpha from human recombinant CCR1 expressed in HEK293 cells after 1.5 hrs; format: cell-based
T1 sequence (P32246 whole entry): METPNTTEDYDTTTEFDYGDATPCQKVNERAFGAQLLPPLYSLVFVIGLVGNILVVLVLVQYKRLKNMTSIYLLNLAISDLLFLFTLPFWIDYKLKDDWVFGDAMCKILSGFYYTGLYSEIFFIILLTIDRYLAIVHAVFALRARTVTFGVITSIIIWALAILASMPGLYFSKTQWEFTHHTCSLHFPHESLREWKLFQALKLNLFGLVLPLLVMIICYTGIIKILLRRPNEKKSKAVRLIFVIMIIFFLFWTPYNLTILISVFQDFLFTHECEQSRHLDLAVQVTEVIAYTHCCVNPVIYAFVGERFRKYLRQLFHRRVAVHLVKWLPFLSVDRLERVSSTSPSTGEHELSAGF

in vitro [4] = conditions: human, Caco-2
in vitro [5] = conditions: rat, hepatocytes
[6] = Clearance in rat liver microsomes; format: ADME, Microsome; conditions: read-out: CLH

| SMILES | microsomal CLint (in vitro [1]; liver microsomes) [µL/min/mg] | hepatocyte CLint (in vitro [2]) [µL/min/1e6 cells] | IC50 [3] [nM] | Papp (in vitro [4]) [×10⁻⁶ cm/s] | hepatocyte CLint (in vitro [5]) [µL/min/1e6 cells] | microsomal CLint [6] [µL/min/mg] | microsomal CLint (in vitro [1]; microsomes) [µL/min/mg] |
| --- | --- | --- | --- | --- | --- | --- | --- |
| COc1ccc(NC(C)=O)c(OC[C@@H](N)CN2CCC3(CC2)Cc2cc(F)ccc2O3)c1 | 17.4 | 3.5 | 9 |  |  |  |  |
| CC(=O)Nc1ccccc1OC[C@@H](O)CN1CCC2(CC1)Cc1cc(F)ccc1O2 | 25.5 | 11 | 0.96 | 16.5 |  |  |  |
| CC(=O)Nc1ccc(F)cc1OC[C@@H](O)CN1CCC2(CC1)Cc1cc(Cl)ccc1O2 | 13.5 | 6.1 | 0.64 | 17 | 17.5 |  |  |
| CC(=O)Nc1ccc(F)cc1OC[C@@H](O)CN1CCC2(CC1)Cc1cc(F)ccc1O2 | 17.8 | 9.3 | 0.36 | 18 | 12 | 29 |  |
| CC(=O)Nc1ccc(O)cc1OC[C@@H](O)CN1CCC2(CC1)Cc1cc(F)ccc1O2 |  | < 3.6 |  | 6.6 | 17.6 |  | < 10 |
| COc1ccc(NC(C)=O)c(OC[C@@H](N)CN2CCC3(CC2)Cc2ccccc2O3)c1 | 18.8 |  | 32 |  |  |  |  |
| CC(=O)Nc1ccc(O)cc1OC[C@@H](N)CN1CCC2(CC1)Cc1cc(Cl)ccc1O2 | < 10 | < 3 | 0.79 | 2.7 | 4.2 | < 10 |  |
| COc1ccc(NC(C)=O)c(OC[C@@H](O)CN2CCC3(CC2)Cc2cc(Cl)ccc2O3)c1 | 55 |  | 0.9 | 24.4 |  |  |  |
| CC(=O)Nc1ccccc1OC[C@@H](O)CN1CCC2(CC1)Cc1cc(Cl)ccc1O2 | < 17 | 2.5 | 0.96 | 26 | 26 |  |  |
| CC(=O)Nc1ccc(O)cc1OC[C@@H](O)CN1CCC2(CC1)Cc1cc(Cl)ccc1O2 | < 10 | < 3 |  |  | 25.7 |  |  |
| CC(=O)Nc1ccc(O)cc1OC[C@@H](N)CN1CCC2(CC1)Cc1cc(F)ccc1O2 | < 10 | < 3 | 1.4 | 2.7 | < 3 | < 10 |  |
| CC(=O)Nc1ccc(O)cc1OC[C@@H](N)CN1CCC2(CC1)Cc1ccccc1O2 | < 10 | < 3 | 18 | 1.6 | 6.6 | 14 |  |
| COc1ccc(NC(C)=O)c(OC[C@@H](N)CN2CCC3(CC2)Cc2cc(Cl)ccc2O3)c1 | 12.6 |  | 6 |  |  |  |  |
